US12110281B2, “Catechol derivatives or salt thereof, processes for preparing the same, and pharmaceutical compositions comprising the same” (HEXAPHARMATEC CO., LTD., priority 2018, dated 2024)
Values joined by “and” are separate entries in the source; they are usually repeats but may differ in a detail not shown here. Equal entries are not always repeated.

What was measured:
[1] = test system: dimethylnitrosamine (DMN)-induced liver injury male SD rats; assay: Liver function-improving activities by oral administration in the liver injury model (1), 3 weeks; assay type: in vivo, rat; settings: serum, 25 mg/kg oral once a day
Description: The compounds according to the present invention were orally administered to dimethylnitrosamine (DMN)-induced liver injury male SD rats for 3 weeks, so as to evaluate liver function-improving activities. Specifically, 7-week-old male SD rats (Orient Bio, Korea) were accommodated to the laboratory environment at room temperature for 7 days. General symptoms were observed and then only healthy animals were used for the experiment. The rats were divided into 9 groups (n=5 for each group), the normal control group, the group to which only DMN is administered, and the groups to which both the compound of the present invention (the compounds of Example 2, 5, 6, 9, 10, 20 or 21) and DMN are administered. DMN was dissolved in purified water and then administered intraperitoneally at the dose of 10 mg/kg for 3 consecutive weeks (3 times per week, for 4 weeks). Blood samples were collected on Day 3 after the completion of the first-week liver injury inducement and then the ALT (Alanine Transaminase) values and the AST (Aspartate Transaminase) values were measured so as to confirm the liver injury thereof. The compounds of the present invention were administered for 3 weeks, i.e., from Day 4 after the completion of the first-week liver injury inducement to the DMN-administering period. The seven compounds of the present invention were dissolved in purified water or corn oil and then orally administered, using an oral sonde, at the dose of 25 mg/kg once a day for 3 weeks. Blood samples were collected on Day 0 (3 days after the completion of the first-week liver injury inducement) and Day 7, 14 and 21 after the administration of the test compounds. The collected blood was injected into a vacutainer tube containing a clot activator and then allowed to stand at room temperature for about 20 minutes so as to coagulate each blood sample. After centrifugation for 10 minutes, the resulting serums were subjected to blood-biochemical tests.

[2] = test system: dimethylnitrosamine (DMN)-induced liver injury male SD rats; assay: Liver function-improving activities by oral administration in the liver injury model (2), 4 weeks, serum ALT/AST and liver histology; assay type: in vivo, rat; settings: for ALT values (average value) / AST values (average value): serum
Description: The compounds according to the present invention were orally administered to dimethylnitrosamine (DMN)-induced liver injury male SD rats for 4 weeks, so as to evaluate liver function-improving activities. Specifically, 7-week-old male SD rats (Orient Bio, Korea) were accommodated to the laboratory environment at room temperature for 7 days. General symptoms were observed and then only healthy animals were used for the experiment. The rats were divided into 3 groups (n=10 for each group), the normal control group, the group to which only DMN is administered, and the group to which both the compound of the present invention (the compound of Example 21) and DMN are administered. DMN was dissolved in purified water and then administered intraperitoneally at the dose of 10 mg/kg for 3 consecutive weeks (3 times per week, for 4 weeks). Blood samples were collected after the completion of the fourth-week liver injury inducement and then the ALT (Alanine Transaminase) values and the AST (Aspartate Transaminase) values were measured so as to confirm the liver injury thereof. The compound of the present invention was administered for 4 weeks, from Day 1 after the completion of the fourth-week liver injury inducement. The compound of the present invention (the compound of Example 21) was dissolved in purified water and then orally administered, using an oral sonde, at the dose of 25 mg/kg once a day for 4 weeks. Blood samples were collected on Day 0 (1 day after the completion of the fourth-week liver injury inducement) and Day 7, 14, 21 and 28 after the administration of the test compound. The collected blood was injected into a vacutainer tube containing a clot activator and then allowed to stand at room temperature for about 20 minutes so as to coagulate each blood sample. After centrifugation for 10 minutes, the resulting serums were subjected to blood-biochemical tests. In addition, at 24 hours after the last administration, an autopsy for hepatectomy and fixation was performed to prepare the tissue specimens thereof. After preparing the slides with the tissue specimens, hematoxylin and eosin (H&E) staining was performed thereon for microscopic observation of damages to liver tissue and inflammatory cell infiltrations in liver tissues. In addition, Masson's trichrome staining was also performed thereon for microscopic observation of collagen fiber depositions in liver tissues.
In addition, the results obtained by performing hematoxylin and eosin (H&E) staining and Masson's trichrome staining as described above are shown in FIGS. 3 and 4, respectively. From the results of FIG. 3, the degrees of damages to liver tissue and the degrees of inflammatory cell infiltrations in liver tissues were measured. And also, from the results of FIG. 4, the degrees of collagen fiber depositions in liver tissues were measured.

[3] = 0 week (Day 0, before administration of test compound)
[4] = 3 weeks after the administration
[5] = 4 weeks after the administration
[6] = liver tissue, H&E staining, after 4 weeks 25 mg/kg oral, hydrochloride
[7] = 0 week (Day 0, after 4 weeks DMN), 25 mg/kg oral once a day
[8] = 1 week, 25 mg/kg oral once a day after 4 weeks DMN
[9] = 2 weeks, 25 mg/kg oral once a day after 4 weeks DMN
[10] = 3 weeks, 25 mg/kg oral once a day after 4 weeks DMN
[11] = 4 weeks, 25 mg/kg oral once a day after 4 weeks DMN

Q: With `CCN(CC)CCOc1ccc(-c2ccc(C(=O)NCC3(N(C)C)CCOCC3)s2)cc1OC.Cl.Cl` [Example 21, N-((4-(dimethylamino)tetrahydro-2H-pyran-4-yl)methyl)-5-(4-(2-diethylamino)ethoxy-3-methoxyphenyl)thiophene-2-carboxamide hydrochloride] as the compound, how does the “ALT values (average value)” value [1, 3] read?
A: 70.98 U/L

Q: What about the “AST values (average value)” value [1, 3] of the same compound?
A: 142.10 U/L

Q: What about the “ALT values (average value)” value ([1]; 1 week) of the same compound?
A: 98.84 U/L

Q: What about the “AST values (average value)” value ([1]; 1 week) of the same compound?
A: 201.30 U/L

Q: What about the “ALT values (average value)” value ([1]; 2 weeks) of the same compound?
A: 104.54 U/L

Q: What about the “AST values (average value)” value ([1]; 2 weeks) of the same compound?
A: 208.26 U/L

Q: What about the “ALT values (average value)” value ([1]; 3 weeks) of the same compound?
A: 101.18 U/L

Q: What about the “AST values (average value)” value ([1]; 3 weeks) of the same compound?
A: 195.10 U/L

Q: And the “ALT decrease in comparison with the DMN-administered group” value [2, 4]?
A: 30%

Q: What about the “AST decrease in comparison with the DMN-administered group” value [2, 4] of the same compound?
A: 22%

Q: What about the “ALT decrease in comparison with the DMN-administered group” value [2, 5] of the same compound?
A: 26%

Q: And the “AST decrease in comparison with the DMN-administered group” value [2, 5]?
A: 30%

Q: And the “collagen fiber depositions in liver tissues reduced in comparison with the DMN-administered group” value ([2]; after 4 weeks)?
A: about 62%

Q: What about the “damages to liver tissue ameliorated in comparison with the DMN-administered group” value ([2]; after 4 weeks) of the same compound?
A: about 50%

Q: And the “inflammatory cell infiltrations in liver tissues ameliorated in comparison with the DMN-administered group” value ([2]; after 4 weeks)?
A: ~55%

Q: And the Degenerative hepatocyte numbers [2, 6]?
A: 276.0 cells/1000 cells and 276.00 ± 16.64 cells/1000 cells

Q: And the Inflammatory cell numbers [2, 6]?
A: 85.33 cells/mm^2 and 85.33 ± 8.41 cells/mm^2

Q: And the “Collagen fiber occupied regions” value ([2]; liver tissue, Masson's trichrome staining, after 4 weeks 25 mg/kg oral, hydrochloride)?
A: 10.98 %/mm^2 and 10.98 ± 1.33 %/mm^2

Q: And the “ALT values (average value)” value [2, 7]?
A: 198.02 U/L

Q: And the “AST values (average value)” value [2, 7]?
A: 329.92 U/L

Q: What about the “ALT values (average value)” value [2, 8] of the same compound?
A: 92.71 U/L

Q: What about the “AST values (average value)” value [2, 8] of the same compound?
A: 158.91 U/L

Q: What about the “ALT values (average value)” value [2, 9] of the same compound?
A: 57.61 U/L

Q: And the “AST values (average value)” value [2, 9]?
A: 107.61 U/L

Q: What about the “ALT values (average value)” value [2, 10] of the same compound?
A: 44.48 U/L

Q: And the “AST values (average value)” value [2, 10]?
A: 112.06 U/L

Q: What about the “ALT values (average value)” value [2, 11] of the same compound?
A: 48.33 U/L

Q: And the “AST values (average value)” value [2, 11]?
A: 110.45 U/L
